Reference: patent US11370841B2, “Methods of treating fibroblast growth factor 19-mediated cancers and tumors” (NGM Biopharmaceuticals, Inc., priority 2016, dated 2022)

How the values were obtained:
[1] = tested on: primary human hepatocytes; assay: In vitro pSTAT3 activation in primary human hepatocytes; type: cell-based; conditions: purified primary human hepatocytes, 50 ng/ml
Experimental: In vitro pSTAT3 activation. Primary human hepatocytes were isolated from consenting donors using a modified collagenase/pronase method (BioReclamation/IVT). Cells were diluted in attachment media (DMEM supplemented with 2 mM glutamine, 100 unit/ml penicillin, 100 unit/ml streptomycin, and 10% FBS), and cells were plated on collagen-coated 6-well plate (Becton Dickinson). Four hours later, cells were changed into William's E media containing dexamethasone/T3/insulin and cultured for 16 hours at 37° C. When indicated, 50 ng/ml FGF19 protein or 50 ng/ml human IL-6 (Peprotech) were added.
Cell extracts were prepared in 50 mM Tris-Cl, PH 7.2, 150 mM NaCl, 1% NP-40, 0.1% SDS, 0.5% sodium deoxycholate supplemented with a protease inhibitor cocktail (Roche) and phosphatase inhibitors (Sigma, phosphatase inhibitor cocktail set 2 and set 3), and protein concentrations were determined by BCA protein assay (Thermo Scientific).
Immunoblotting. […] Membranes were washed in TBST extensively, and bound proteins were detected with horseradish peroxidase-conjugated goat-anti-mouse IgG or goat-anti-rabbit IgG antibodies (GE Healthcare) for 1 hour at room temperature. […]
To investigate an in vitro direct effect of FGF19 on STAT3 activation in isolated hepatocytes, pSTAT3^Y705 levels in primary cultures of hepatocytes upon FGF19 stimulation were analyzed by western blotting. […]

[2] = tested on: primary human hepatocytes; assay: In vitro BrdU incorporation in primary human hepatocytes; type: cell-based; conditions: purified primary human hepatocytes
Experimental: FIGS. 2A-2E depict non-cell autonomous promotion of hepatocellular proliferation by FGF19. 11 week old mice (n=5 per group) were implanted with osmotic pumps releasing BrdU (8.5 mg/kg/day) and FGF19 protein (0.4 mg/kg/day). Livers were harvested 6 days post-implant. (FIG. 2A) Flow cytometry analysis of BrdU-labeled livers is shown. Representative histograms from hepatocytes stained with 7-ADD and anti-BrdU-APC are shown. (FIG. 2B) BrdU-positive hepatocytes as a percentage of total hepatocytes from vehicle (V)-treated (n=5) or FGF19-treated (n=5) mice were quantified by flow cytometry. (FIG. 2C) Shown are circulating FGF19 levels on day 6 post-implant of osmotic pumps. (FIG. 2D) Lack of proliferative effects of FGF19 on primary mouse hepatocytes. Primary cultures of hepatocytes isolated from mouse liver were incubated with recombinant FGF19 protein at the indicated concentrations for 48 hours and BrdU was added during the last 20 hours of incubation. BrdU incorporation was determined using a luminescence method. Mouse hepatocyte growth factor (mHGF) was included as a positive control. RLU, relative luminescence unit. (FIG. 2E) Lack of proliferative effects of FGF19 on primary human hepatocytes. Primary cultures of hepatocytes isolated from human liver were incubated with recombinant FGF19 protein. Human hepatocyte growth factor (hHGF) was included as a positive control. […]

hepatic mRNA levels = assay: Hepatic gene expression in FGF19-treated db/db mice (qRT-PCR)
FGF19-mediated HCC = assay: Tumorigenicity study in db/db mice (AAV-SOCS3, tofacitinib); type: in vivo
Experimental: Blood parameters. Blood was collected from tail vein in un-anesthetized animals using microvette serum gel tubes (Sarstedt) for measurements of glucose, insulin, ALT, AST, ALP, bile acids, and FGF19 concentrations. Serum samples were prepared by centrifugation at 4° C. for 10 minutes at 6000 g after clotting at room temperature for 30 minutes. For HbA1c measurements, whole blood was collected after euthanasia by cardiac puncture into EDTA-tubes and quickly inverted multiple times. HbA1c (from whole blood samples) and liver enzyme (from serum samples) levels were measured on Cobas Integra 400 Clinical Analyzer (Roche Diagnostics). Serum FGF19 level was determined by FGF19 enzyme-linked immunosorbent assays (ELISA) (Biovendor). Serum insulin was assessed with ELISA kits from ALPCO. Concentrations of total bile acids in serum were determined using a 3β-hydroxysteroid dehydrogenase method (Diazyme). All assays were performed according to the manufacturers' instructions.
Histology and immunohistochemistry. Livers were fixed in 10% neutral-buffered formalin and embedded in paraffin. 5 μm sections were deparaffinized in xylenes, rehydrated sequentially in graded ethanol (100%, 95%, 80%, 70%, 50%, 2 minutes each). Hematoxylin and eosin staining was performed using standard methods. For immunohistochemical studies, liver sections were subjected to antigen retrieval in a citrate-based Antigen Unmasking Solution (Vector Laboratories), and incubated for 30 minutes with 3% H2O2 at room temperature to block endogenous peroxidase activity. Sections were stained with primary antibodies against glutamine synthetase (Thermo Fisher), BrdU, PCNA, or STAT3 in PBS containing 10% goat serum. Biotinylated secondary antibodies, ABC-HRP reagent (Vectastain ABC kit, #PK-6100, Vector Laboratories) and di-amine-benzidine (DAB) colorimetric peroxidase substrate (#SK-4100, Vector Laboratories) were used for detection. When indicated, sections were counterstained with hematoxylin. Digital imaging microscopy was performed using a Leica DM4000 microscope equipped with DFC500 camera and a scanning platform (Leica). Images for the entire liver section were acquired by stitching 70-96 fields together using Surveyor program for morphometric analysis. Glutamine synthetase-positive tumor areas were quantified using Measure/Count/Area tool from ImagePro software.
Tumorigenicity study in db/db mice. 11 to 12 week old db/db mice received a single intravenous dose of AAV containing either FGF19 or a control gene (green fluorescent protein). Body weight and blood glucose were monitored. […] Mice were euthanized 24 weeks post-AAV administration and examined for liver tumor formation by gross appearance and histology.

[3] = FGF19 protein 1 mg/kg i.p., 2 hours

FGF19: Fibroblast growth factor 19, mature human 194 amino acid polypeptide (SEQ ID NO: 1); recombinant protein or AAV-expressed
STAT3 activation (pSTAT3 Y705) [1]: lack of STAT3 activation
Proliferative effect (BrdU incorporation) [2]: lack of direct proliferative effect
Hepatic mRNA levels of IL-6 (hepatic mRNA levels; [3]): increased significantly
RNA levels of IL-11, LIF, OSM, CNTF and CTF1 (hepatic mRNA levels; [3]): remained unchanged or undetectable
Hepatic Cyp7a1 mRNAs (hepatic mRNA levels; acute FGF19 treatment): efficiently suppressed
HbA1c (FGF19-mediated HCC; AAV-expressed FGF19, in the absence or presence of SOCS3): normalized
Blood glucose levels (FGF19-mediated HCC; AAV-expressed FGF19, irrespective of tofacitinib treatment): normalized
